Data set [1] has as its system panel of 14 human cancer cell lines. The data set is described as follows: MTT cell viability assay, whole panel. Type of data set: cell-based. On the set-up: key to Cytotoxicity: no impact (0); weak impact (+); strong impact (++). The conditions noted are these: for Cytotoxicity: summary grade. The procedure: Distinct MTT cell viability and crystal violet cell proliferation assays were performed to assess the cytotoxicity of the compounds 1–6 on 14 human cancer cell lines. In the viability assay, cells with intact mitochondria and thus active dehydrogenases are competent to convert MTT to the corresponding insoluble formazan. The formazan can be photometrically detected after solubilization and allows for indirect conclusions about the viability of the cells as an IC50 value. In the crystal violet assay, cells are stained by the binding of the dye to the chromatin, thus allowing for a quantification of biomass that remains adherent after a treatment in comparison with a control after a specific time. Potency is defined as the growth inhibitory concentration 50% (GI50).
In addition to performing the cell viability assay under normoxia (19% atmospheric oxygen), incubations were also conducted under hypoxic conditions, i.e., atmospheric oxygen levels of 1% during the treatment for 48 h. Hypoxia is a favorable condition of the tumor microenvironment that is connected with poor outcome. Therefore, the low oxygen condition mimics better the tumor environment. The biological effect of the pentathiepins under this condition provides insight into their dependency for oxygen, which has been postulated a key component in the proposed mechanism of action (Figure 3). Consistent with the proposed mechanism of action for five of the compounds, potency decreased under hypoxic conditions; in fact for 6, the half-maximal inhibitory concentration exceeded the highest tested concentration of 10 µM in four cell lines (Figure 6, Table S3). […] In contrast to the other compounds, in some cell lines, the cytotoxic effects of 1 were more pronounced under oxygen-reduced incubation conditions (Figure 6), indicating a tangential role of oxygen availability for this pentathiepin. Especially for the breast cancer cell line MCF-7, the cytotoxicity increased substantially, indicated by a decrease of the IC50 from >10.0 µM to about 1.0 µM.
The effect of the pentathiepins on the viability of the cell lines was assessed via an MTT assay, performed as previously described. Healthy and viable cells convert the yellow soluble 3-(4,5-dimethylthiazol-2-yl)-2,5-diphenyltetrazolium bromide to the insoluble purple corresponding formazan, which can be spectrophotometrically measured. For this assay, 5000 cells (1 250 for LCLC-103H) in 0.1 mL of medium were seeded per well of a 96-well plate and incubated at standard conditions for 24 h prior to treatment. A serial dilution of the test compounds was prepared in medium, covering final concentrations from 10.0 to 0.04 µM, and 0.1 mL of the working solution was added to each well in triplicate. After 48 h, 20 µL of a 2.5 mg/mL MTT in PBS solution was pipetted into each well and further incubated for 4 h at standard conditions. Thereafter, medium was replaced with 50 µL DMSO, and the plates were put on a shaker for 5 min and subsequently read at λ = 570 nm, with a SpectraMax 384plus (Molecular Devices, Sunnyvale, CA, USA). The cell viabilities of the treatment conditions were calculated in relation to a solvent control sample. The absolute IC50 was calculated via nonlinear regression followed by interpolation of the dose–response graphs in Prism 7 (GraphPad, San Diego, CA, USA). The IC90 was derived from the IC50 by using the slope factor of the dose–response graph with the tool QuickCalcs from GraphPad (GraphPad Software, San Diego, CA, USA). […]

Data set [2] relates to seven cancer cell lines. The experiment in a line: cell cycle analysis (summary). Type of data set: cell-based, human. Set-up: key: no impact (0); weak impact (+); strong impact (++). The conditions noted are these: summary grade. As to the method:
The potent cytotoxicity and the potential to inhibit the proliferation of cancer cells accompanied by DNA damage effects raised the question as to whether cell cycle progression might be affected as a result of treatment with pentathiepins.
Cells were harvested by trypsinization, collected in 1.5 mL tubes, and washed twice with PBS by centrifuging for 5 min at 500× g and discarding the supernatant after every step. For fixation, 500 µL of ice-cold ethanol (70%) was added dropwise under vortexing with a subsequent incubation on ice for 30 min. Then, the cells were centrifuged for 10 min at 4000 rpm and 4 °C, the supernatant was removed, and the cells were resuspended in 500 µL of PBS containing 25 µg/mL of PI and 100 µg/mL of RNase. The staining solution was incubated for 30 min, and the cell suspension was measured at λEx/Em = 488/655–730 nm using a MACSquant Analyzer 10 (Miltenyi Biotec, Teterow, Germany).

The subject of data set [3] is seven cancer cell lines. The data set is described as follows: DCFDA flow cytometric ROS assay, acute. Type of data set: cell-based, human. The conditions noted are these: 25 µM, 15 min, vs solvent control. A general note: A flow cytometer gives signals particle by particle.
A further data set relates to PARP1 in HAP-1.KO.GPx1. The experiment in a line: Western blot of cleaved PARP1. It counts as cell-based, human. The settings on record: pentathiepins IC90, doxorubicin 0.5 µM, 24 h. As to the method:
In addition to general flow cytometric and microscopic analyses, Western blotting was performed to detect the apoptosis-relevant protein PARP1 (poly(ADP-ribose) polymerase 1) and its cleavage fragment (Figure 17 and Figures S29–S34). Full-length PARP1 (116 kDa) is involved in DNA repair, and a cleavage by caspases (fragment sizes 24 and 89 kDa) caused by caspase-3 and -7 is a hallmark of late apoptosis.
All detected specific bands were normalized to the total protein load per lane by the TGX stain-free gel system from Bio-Rad.
All Western blot analyses were performed with reagents, material, and devices purchased from Bio-Rad (Feldkirchen, Germany) if not stated otherwise. To obtain protein lysates, we seeded cells and treated them as described for the other methods. […] Cells were harvested by trypsinization and centrifugation for 5 min at 500× g. After a washing step with PBS, the cell pellet was resuspended in lysis buffer (Tris 50 mM (pH 7.4), 100 mM NaCl, 100 mM NaF, 5 mM EDTA, 0.2 mM Na3VO4, 0.1% Triton-X, and 1% protease inhibitor cocktail added immediately before use). Lysis was supported by incubating the samples for 10 min in an ultrasonic bath before centrifuging for 10 min at 18,000 × g and 4 °C. Protein quantification was performed via the Bradford method using ROTI®nanoquant reagent (Carl Roth GmbH, Karlsruhe, Germany) and bovine serum albumin as calibration standard. For electrophoretic separation, 15–40 µg of protein was loaded per well of a polyacrylamide gel (Mini- or Midi-Protean® TGX stain-free gel, Bio-Rad, Feldkirchen, Germany), and subsequent blotting was performed with Trans-Blot®Turbo™TransferPack Mini or Midi PVDF membranes from Bio-Rad (Feldkirchen, Germany). The membranes were blocked with a 10% non-fat milk powder solution in Tris-buffered saline (TBS; 2.42 g/L Tris, 8.48 g/L NaCl in water) plus 0.5% Tween-20 (TBST) for 1 h at RT. Incubation with primary antibodies took place over night at 4 °C in a 1:1000 dilution in TBST containing BSA (1%). The secondary antibodies conjugated to horse-radish peroxidase were diluted 1:10,000 in TBST and 1% BSA, and incubated for 4 h at RT. A detection step followed, applying Clarity™Western ECL substrate with subsequent imaging via the INTAS Advanced Fluorescence Imager. Between all incubation steps, the blots were washed three times for 10 min with TBST. The bands were quantified with the ImageLab software and normalized using the total protein quantification of the TGX stain-free gel system from Bio-Rad.
(In general: In western blotting, separated proteins are transferred to a membrane and probed.)

Setting [4] is: Homo sapiens, mean over the cell line panel, hypoxic, read-out: IC50 MTT-H, mean per compound.
The mark [5] stands for this setting: Homo sapiens, mean over the cell line panel, normoxic, read-out: IC50 MTT-N, mean per compound.
Setting [6] is: mean over the cell line panel, normoxic, read-out: IC50 MTT-N, mean per compound.

SMILES strings stand for the structures. pIC50: −log10 of the molar value. Where two headings read alike, the source gives them in different places.

Turning to `CCOc1c2c(c3cnc4[nH]c(-c5ccc(OC)cc5)cc4n13)SSSSS2` [Compound 1, 11-Ethoxy-2-(4-methoxyphenyl)-3H-[1,2,3,4,5]pentathiepino[6′,7′:3,4]pyrrolo[1,2-a]pyrrolo[2,3-e]pyrazine], the results for the pIC50 in data set [1] (setting [4]), in data set [1] (setting [5]) and in data set [1] (setting [6]) were 6.31, 6.14 and 6.15, respectively. In addition, the Cytotoxicity entry in data set [1] was “++”. Also, the G0/G1 arrest entry in the data set on seven cancer cell lines [2] is “+”. For the same compound, the G2/M arrest in the data set with seven cancer cell lines [2] is 0. For the same compound, the “intracellular ROS levels” value in the data set on seven cancer cell lines [3] is given as “did not change the intracellular ROS levels in any of the cell lines”.

Regarding `CCOc1c2c(c3ccc(C(=O)N4CCCCC4)cn13)SSSSS2` [Compound 2, (6-Ethoxy-[1,2,3,4,5]pentathiepino[6,7-a]indolizin-9-yl)(piperidinyl)methanone], the pIC50 in data set [1] (setting [4]) is 5.66; in data set [1] (setting [5]), 5.86. Besides, in data set [1], the Cytotoxicity entry is “+”. In the data set with seven cancer cell lines [2], the G0/G1 arrest was determined as 0. Moreover, the G2/M arrest entry with seven cancer cell lines [2] was “+”. The “intracellular ROS levels” value with seven cancer cell lines [3] is on record as “burst of ROS in all cell lines”.

For the compound `CCOc1c2c(c3ccc(C(=O)N4CCOCC4)cn13)SSSSS2` [Compound 3, (6-Ethoxy-[1,2,3,4,5]pentathiepino[6,7-a]indolizin-9-yl)(morpholino)methanone], in data set [1] (setting [4]), the pIC50 was 5.77. In addition, in data set [1] (setting [5]), the pIC50 was 6.10. In addition, the Cytotoxicity entry in data set [1] is given as “++”. For the same compound, the “cleaved PARP1” value in the data set with PARP1 in HAP-1.KO.GPx1 is given as “trends for increased levels”. In the data set with seven cancer cell lines [2], the G0/G1 arrest came out at 0 and the G2/M arrest result was “+”. Besides, the “intracellular ROS levels” value in the data set on seven cancer cell lines [3] is “burst of ROS in all cell lines”.

In the case of `CCOc1c2c(c3ccc(C(=O)N(CC)CC)cn13)SSSSS2` [Compound 4, 6-Ethoxy-N,N’-diethyl-[1,2,3,4,5]pentathiepino[6,7-a]indolizine-9-carboxamide], in data set [1] (setting [4]), the pIC50 was 5.69. In addition, the pIC50 in data set [1] (setting [5]) was 5.99. Besides, the Cytotoxicity result in data set [1] is given as “++”. Also, in the data set with seven cancer cell lines [2], the G0/G1 arrest turned out to be 0 and the G2/M arrest result is recorded as “+”. Besides, the “intracellular ROS levels” value in the data set on seven cancer cell lines [3] is “burst of ROS in all cell lines”.

On to `CCOc1c2c(c3ccc(C(=O)N4CCN(C(=O)c5ccc(F)cc5)CC4)cn13)SSSSS2` [Compound 5, (6-Ethoxy-[1,2,3,4,5]pentathiepino[6,7-a]indolizin-9-yl)(4-(4-fluorobenzoyl)piperazinyl)methanone], for which, in data set [1] (setting [4]), the pIC50 was 5.89. Further, in data set [1] (setting [5]), the pIC50 was 6.08. The Cytotoxicity entry in data set [1] is “++”. Also, in the data set on PARP1 in HAP-1.KO.GPx1, the “cleaved PARP1” value was “trends for increased levels”. Also, in the data set with seven cancer cell lines [2], the G0/G1 arrest is listed as 0 and the G2/M arrest entry was “+”. Moreover, the “intracellular ROS levels” value in the data set on seven cancer cell lines [3] is given as “burst of ROS in all cell lines”.

As to `CCOc1c2c(c3ccc(C(=O)N4CCN(S(=O)(=O)c5ccc(C)cc5)CC4)cn13)SSSSS2` [Compound 6, (6-Ethoxy-[1,2,3,4,5]pentathiepino[6,7-a]indolizin-9-yl)(4-tosylpiperazinyl)methanone], the pIC50 was under 5.00 in data set [1] (Homo sapiens, hypoxic conditions, in four cell lines, exceeded highest tested concentration, read-out: half-maximal inhibitory concentration); 5.61 in data set [1] (setting [4]); 5.63 in data set [1] (setting [5]); 5.63 in data set [1] (setting [6]). Besides, in data set [1], the Cytotoxicity entry is given as “+”. In addition, in the data set on PARP1 in HAP-1.KO.GPx1, the “cleaved PARP1” value is “relevant and significant quantities of cleaved PARP1”. Also, the G0/G1 arrest result in the data set with seven cancer cell lines [2] is given as “+”. In the data set on seven cancer cell lines [2], this compound had a G2/M arrest of 0. Also, the “intracellular ROS levels” value in the data set with seven cancer cell lines [3] was “only in three of the panel”.

The values are drawn from paper PMC8305076, “Comprehensive Evaluation of Biological Effects of Pentathiepins on Various Human Cancer Cell Lines and Insights into Their Mode of Action” (International Journal of Molecular Sciences, 2021).
